These results are taken from US11377442B2, “Small molecule agonists and antagonists of NR2F6 activity” (ZANDER THERAPEUTICS, INC., priority 2016, dated 2022).

Common to all, as to assay type: cell-based
Assay [1] deals with Renilla. As to the kind of experiment: Renilla signal in NR2F6 agonist screening, cmpd/DMSO. To be noted: Renilla, read-out: Renilla F4, cmpd/DMSO (mean).
Assay [2] concerns the target T1, ERα (Homo sapiens, UniProt P03372).
T1 construct: expressed in transfected cells
T1 sequence (P03372 1-595): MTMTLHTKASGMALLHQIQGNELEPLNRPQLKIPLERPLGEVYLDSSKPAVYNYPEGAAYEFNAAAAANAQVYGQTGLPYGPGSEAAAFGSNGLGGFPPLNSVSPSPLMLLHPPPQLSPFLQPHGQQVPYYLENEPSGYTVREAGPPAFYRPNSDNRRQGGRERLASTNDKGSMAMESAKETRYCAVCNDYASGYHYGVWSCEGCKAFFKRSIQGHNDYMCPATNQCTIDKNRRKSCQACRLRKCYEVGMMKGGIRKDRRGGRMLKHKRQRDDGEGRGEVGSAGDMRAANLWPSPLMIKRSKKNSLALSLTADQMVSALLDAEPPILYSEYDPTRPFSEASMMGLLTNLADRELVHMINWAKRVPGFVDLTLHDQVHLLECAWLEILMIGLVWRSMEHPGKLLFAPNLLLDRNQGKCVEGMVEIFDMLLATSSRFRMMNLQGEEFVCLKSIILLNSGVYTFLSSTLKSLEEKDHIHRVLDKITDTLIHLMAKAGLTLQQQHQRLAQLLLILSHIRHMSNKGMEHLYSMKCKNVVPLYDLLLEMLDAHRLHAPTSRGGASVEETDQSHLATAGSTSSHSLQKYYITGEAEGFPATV
As to the kind of experiment: Counterscreening, Firefly signal with ERα transient transfection (Firefly_ERa). As to conditions: 10 uM. As for the experimental part:
The methodology for screening candidate compounds as NR2F6 agonists was as follows: For primary screening, hit criteria was ACT %>DMSO control+5*SD (DSO control) at 10 μM, or any compound with S/B>2. For rescreening, hit criteria was ACT %>DMSO control+3*SD (DSO control) in each replicate at 10 μM. For counterscreening, hit criteria was mean ACT<DMSO control+3*SD (DMSO control) with ERα transient transfection in duplicate at 10 μM.
In general terms: A counterscreen serves to expose hits that act by an unwanted route or on another target.

Assay [3] concerns the target T1, ERα. The description is as above.
Assay [4] relates to Renilla_ERa. As to the kind of experiment: Renilla signal in ERα counterscreen (Renilla_ERa). As to conditions: read-out: Renilla ERalpha transient, cmpd/DMSO (mean).
Assay [5] concerns the target T2, NR2F6 (Homo sapiens, UniProt P10588).
T2 construct: expressed in transfected cells; also transient transfection
T2 sequence (P10588 1-404): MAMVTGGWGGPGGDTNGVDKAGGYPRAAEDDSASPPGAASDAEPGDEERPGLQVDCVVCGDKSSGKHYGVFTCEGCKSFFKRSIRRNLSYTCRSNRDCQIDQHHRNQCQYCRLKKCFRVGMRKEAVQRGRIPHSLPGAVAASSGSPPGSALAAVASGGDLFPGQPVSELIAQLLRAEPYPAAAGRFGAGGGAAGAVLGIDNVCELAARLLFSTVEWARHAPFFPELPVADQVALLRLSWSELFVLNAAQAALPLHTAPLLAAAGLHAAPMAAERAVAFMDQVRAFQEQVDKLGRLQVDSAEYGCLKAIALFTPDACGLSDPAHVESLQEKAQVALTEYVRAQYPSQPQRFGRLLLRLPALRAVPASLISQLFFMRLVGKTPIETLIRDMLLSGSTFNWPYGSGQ
As to the kind of experiment: NR2F6 agonist screening, Firefly signal cmpd/DMSO.

Read-outs that look alike come from different tables or passages of the source.

For `COc1ccc(-c2cc3n(n2)C(N)=C(C#N)C(c2ccc(N4CCOCC4)cc2)(C(F)(F)F)N3)cc1OC` (stereo not drawn) [Compound Z45], the fold induction at 2 µM in assay [1] (clone F4) worked out at 1.2; in assay [4], 1.1. The results for the fold induction at 10 µM in assay [1] (clone F4) and in assay [4] were 1.2 and 0.8, respectively. Besides, the fold induction at 40 µM in assay [1] (clone F4) came out at 1.1; in assay [4], 1. The “Firefly ERalpha transient, cmpd/DMSO (mean)” value in assay [2] worked out at 0.6; in assay [3] (2 uM), 0.8; in assay [3] (40 uM) it was 0.7. In addition, the “Firefly F4, cmpd/DMSO (mean)” value is given as 0.8 in assay [5] (2 uM, clone F4); 1.2 in assay [5] (10 uM, clone F4); 0.5 in assay [5] (40 uM, clone F4).

As to `COC(=O)CNc1c(C#N)c(C(F)(F)F)nc2ccc(OC)cc12` [Compound Z46], the fold induction at 2 µM in assay [1] (clone F4) and in assay [4] was 0.9 each time. Moreover, the figures for the fold induction at 10 µM in assay [1] (clone F4) and in assay [4] were 0.8 and 1, respectively. Further, the figures for the fold induction at 40 µM in assay [1] (clone F4) and in assay [4] were 0.6 and 1, respectively. For the same compound, the “Firefly ERalpha transient, cmpd/DMSO (mean)” value in assay [2] is 0.8; in assay [3] (2 uM) it was 0.9; in assay [3] (40 uM), 0.6. Moreover, the “Firefly F4, cmpd/DMSO (mean)” value in assay [5] (2 uM, clone F4) is 0.6; in assay [5] (10 uM, clone F4), 0.8; in assay [5] (40 uM, clone F4), 0.6.

Regarding `COC(=O)c1[nH]c2c(c(C(F)(F)F)nc3ccc(OC)cc32)c1N` [Compound Z47], the fold induction at 2 µM in assay [1] (clone F4) amounted to 1.1; in assay [4] it was 1.2. In addition, the fold induction at 10 µM was found to be 1.2 in assay [1] (clone F4) and 1.4 in assay [4]. Besides, the fold induction at 40 µM turned out to be 1.7 in assay [1] (clone F4) and 1.2 in assay [4]. Moreover, the “Firefly ERalpha transient, cmpd/DMSO (mean)” value in assay [2] came out at 1.0; in assay [3] (2 uM), 0.9; in assay [3] (40 uM), 1.7. The “Firefly F4, cmpd/DMSO (mean)” value was found to be 0.9 in assay [5] (2 uM, clone F4); 1.3 in assay [5] (10 uM, clone F4); 2.0 in assay [5] (40 uM, clone F4).

Take `N#Cc1c(C(F)(F)F)nc2ccc(Cl)cc2c1NC1CC1` [Compound Z48]: the values for the fold induction at 2 µM in assay [1] (clone F4) and in assay [4] were 0.8 and 1.1, respectively. In addition, the results for the fold induction at 10 µM in assay [1] (clone F4) and in assay [4] were 0.6 and 0.8, respectively. Moreover, the fold induction at 40 µM in assay [1] (clone F4) and in assay [4] was 0.6 each time. The “Firefly ERalpha transient, cmpd/DMSO (mean)” value is on record as 0.3 in assay [2], 1.5 in assay [3] (2 uM) and 0.5 in assay [3] (40 uM). For the same compound, the “Firefly F4, cmpd/DMSO (mean)” value in assay [5] (2 uM, clone F4) is recorded as 0.9; in assay [5] (10 uM, clone F4), 0.5; in assay [5] (40 uM, clone F4), 0.7.

Turning to `N#CC1=C(N)n2nc(-c3ccccc3)cc2NC1(c1ccc(N2CCOCC2)cc1)C(F)(F)F` (stereo not drawn) [Compound Z49], the fold induction at 2 µM in assay [1] (clone F4) and in assay [4] was 1 in each case. For the same compound, the fold induction at 10 µM in assay [1] (clone F4) and in assay [4] was 0.7 each time. Also, the fold induction at 40 µM in assay [1] (clone F4) and in assay [4] was 0.8 each time. The “Firefly ERalpha transient, cmpd/DMSO (mean)” value in assay [2] was 0.4; in assay [3] (2 uM), 1.0; in assay [3] (40 uM), 0.4. Also, the “Firefly F4, cmpd/DMSO (mean)” value in assay [5] (2 uM, clone F4) was determined as 0.8; in assay [5] (10 uM, clone F4), 0.7; in assay [5] (40 uM, clone F4), 0.6.

Take `COc1ccc(-c2cc3n(n2)C(N)=C(C#N)C(c2cccn2C)(C(F)(F)F)N3)cc1OC` (stereo not drawn) [Compound Z50]: the fold induction at 2 µM came to 1.6 in assay [1] (clone F4) and 1 in assay [4]. In addition, the fold induction at 10 µM in assay [1] (clone F4) worked out at 2; in assay [4], 0.8. The fold induction at 40 µM in assay [1] (clone F4) was found to be 0.8; in assay [4] it was 0.6. The “Firefly ERalpha transient, cmpd/DMSO (mean)” value is 0.7 in assay [2], 1.3 in assay [3] (2 uM) and 0.7 in assay [3] (40 uM). The “Firefly F4, cmpd/DMSO (mean)” value in assay [5] (2 uM, clone F4) was found to be 0.8; in assay [5] (10 uM, clone F4), 0.9; in assay [5] (40 uM, clone F4), 0.6.

For `N#Cc1c(C(F)(F)F)nc2ccc(Oc3ccccc3)cc2c1N1CCNCC1` [Compound Z51], the fold induction at 2 µM was 0.8 in assay [1] (clone F4) and 1.1 in assay [4]. The fold induction at 10 µM in assay [1] (clone F4) came to 0.7; in assay [4], 0.9. Moreover, the fold induction at 40 µM in assay [1] (clone F4) and in assay [4] was 0.3 each time. Further, the “Firefly ERalpha transient, cmpd/DMSO (mean)” value stood at 0.8 in assay [2], 1.3 in assay [3] (2 uM) and 0.4 in assay [3] (40 uM). Further, the “Firefly F4, cmpd/DMSO (mean)” value came out at 0.6 in assay [5] (2 uM, clone F4); 0.6 in assay [5] (10 uM, clone F4); 0.7 in assay [5] (40 uM, clone F4).

For the compound `N#Cc1c(C(F)(F)F)nc2ccc(Oc3ccccc3)cc2c1NCCc1ccc(Cl)cc1` [Compound Z52], the fold induction at 2 µM in assay [1] (clone F4) worked out at 0.8; in assay [4], 1.1. The results for the fold induction at 10 µM in assay [1] (clone F4) and in assay [4] were 0.5 and 0.8, respectively. Moreover, the fold induction at 40 µM in assay [1] (clone F4) stood at 0.6; in assay [4], 0.7. Further, the “Firefly ERalpha transient, cmpd/DMSO (mean)” value in assay [2] worked out at 0.4; in assay [3] (2 uM), 0.7; in assay [3] (40 uM), 0.7. The “Firefly F4, cmpd/DMSO (mean)” value is listed as 0.6 in assay [5] (2 uM, clone F4); 0.7 in assay [5] (10 uM, clone F4); 0.7 in assay [5] (40 uM, clone F4).

Regarding `CNc1c(C#N)c(C(F)(F)F)nc2ccc(Oc3ccccc3)cc12` [Compound Z53], the fold induction at 2 µM in assay [1] (clone F4) is 0.7; in assay [4], 1. Moreover, the fold induction at 10 µM in assay [1] (clone F4) was determined as 0.7; in assay [4] it was 0.6. In addition, the fold induction at 40 µM turned out to be 0.6 in assay [1] (clone F4) and 0.5 in assay [4]. Further, the “Firefly ERalpha transient, cmpd/DMSO (mean)” value is 0.3 in assay [2], 1.0 in assay [3] (2 uM) and 0.4 in assay [3] (40 uM). Further, the “Firefly F4, cmpd/DMSO (mean)” value in assay [5] (2 uM, clone F4) stood at 0.8; in assay [5] (10 uM, clone F4), 0.4; in assay [5] (40 uM, clone F4), 0.5.

`CCOC(=O)c1cnc2c(C)cc(C)cc2c1NCCCN` [Compound Z58]: the figures for the fold induction at 2 µM in assay [1] (Table 15) and in assay [4] (Table 15) were 1.3 and 1.2, respectively. The fold induction at 10 µM in assay [1] (Table 15) came out at 1.2; in assay [4] (Table 15) it was 1.1. Also, the fold induction at 40 µM in assay [1] (Table 15) was 0.8; in assay [4] (Table 15) it was 0.7. The “Firefly ERalpha transient, cmpd/DMSO (mean)” value in assay [2] (Table 15) is reported as 6.5; in assay [3] (Table 15, 2 uM) it was 1.5; in assay [3] (Table 15, 40 uM), 0.8. The “Firefly F4, cmpd/DMSO (mean)” value worked out at 0.9 in assay [5] (Table 15, 2 uM); 4.5 in assay [5] (Table 15, 10 uM); 0.8 in assay [5] (Table 15, 40 uM).
